Results reported in the RepoRT retention time repository (doi:10.1038/s41586-021-03707-9).

assay: Waters ACQUITY UPLC BEH C18, 100 × 2.1 mm, 1.7 µm, 40 °C, 0.28 mL/min, estimated dead time 0.63 min; A: water + 6.5 mM ammonium hydroxide; B: methanol + 6.5 mM ammonium hydroxide; gradient (min/%B) 0/0.5 4/70 4.5/98 5.4/98; details: stereoisomer not certain

Row | LC retention time [min] | SMILES
1 | 4 | Cc1cccc(O)c1O
2 | 0.858 | Nc1ncnc2c1ncn2C1OC(COP(=O)(O)O)C(O)C1O (configuration not stated)
3 | 2.59 | O=S(=O)(O)Oc1c[nH]c2ccccc12
4 | 0.816 | O=C(CO)C(O)C(O)C(O)CO (configuration not stated)
5 | 0.794 | NCCCCC(N)C(=O)O (configuration not stated)
6 | 2.26 | O=C(O)C(=O)c1ccccc1
7 | 0.828 | O=C(CO)C(OC1OC(CO)C(O)C(O)C1O)C(O)C(O)CO (configuration not stated)
8 | 1.26 | NC(=O)c1ccc[n+](C2OC(COP(=O)(O)OP(=O)(O)OCC3OC(n4cnc5c(=O)[nH]cnc54)C(O)C3O)C(O)C2O)c1 (configuration not stated)
9 | 0.929 | NC(CCSSCCC(N)C(=O)O)C(=O)O (configuration not stated)
10 | 2.37 | NC(Cc1ccccc1)C(=O)O (configuration not stated)
11 | 3.5 | O=C(CCc1ccc(O)cc1)c1c(O)cc(O)cc1OC1OC(CO)C(O)C(O)C1O (configuration not stated)
12 | 4.19 | O=Cc1c[nH]c2ccccc12
13 | 3.64 | CC1=C(CCC(=O)O)c2cc3nc(cc4[nH]c(cc5[nH]c(cc1n2)c(C)c5CCC(=O)O)c(CCC(=O)O)c4C)C(CCC(=O)O)=C3C
14 | 3.14 | O=C(C=Cc1ccc(O)c(O)c1)OC(Cc1ccc(O)c(O)c1)C(=O)O (configuration not stated)
15 | 2.78 | CC(=O)OCc1ccccc1
16 | 3.86 | O=C(O)CCCc1ccccc1
17 | 5.27 | CC(C)Cc1ccc(C(C)C(=O)O)cc1 (configuration not stated)
18 | 2.48 | CC(C)CC(=O)C(=O)O
19 | 3.54 | Cc1cc(C(=O)O)ccc1O
20 | 0.969 | Cn1cncc1CC(N)C(=O)O (configuration not stated)
21 | 2.9 | Cc1ccc(OS(=O)(=O)O)cc1
22 | 4.67 | [2H]C([2H])([2H])C([2H])([2H])C([2H])([2H])C([2H])([2H])C([2H])([2H])C([2H])([2H])C([2H])([2H])C(=O)O

Row | LC retention time [min] | SMILES
23 | 2.24 | O=C(O)CCc1cccc(O)c1
24 | 0.845 | NC(N)=NCCCC(N)C(=O)O (configuration not stated)
25 | 0.87 | CC(=O)CCC(=O)O
26 | 3.07 | NC(N)=Nc1nc(CSCCC(N)=NS(N)(=O)=O)cs1
27 | 2.46 | O=C(O)Cc1ccccc1O
28 | 2.66 | COc1ccc(CC(=O)O)cc1OC
29 | 2.9 | O=C(O)c1c(O)cccc1O
30 | 2.93 | OCc1cccc(O)c1
31 | 0.853 | CC(C)(COP(=O)(O)OP(=O)(O)OCC1OC(n2cnc3c(N)ncnc32)C(O)C1OP(=O)(O)O)C(O)C(=O)NCCC(=O)NCCS (configuration not stated)
32 | 3.63 | CN=C(NC#N)NCCSCc1nc[nH]c1C
33 | 1 | CC(C)C(N)C(=O)O (configuration not stated)
34 | 0.884 | O=CC(O)C1OC(=O)C(O)C1O (configuration not stated)
35 | 0.862 | O=C1OC(C(O)CO)C(=O)C1=O (configuration not stated)
36 | 4.33 | Cc1ccc(O)c([N+](=O)[O-])c1
37 | 4.4 | O=CCc1c[nH]c2ccccc12
38 | 1.1 | O=C(O)Cc1ccc(O)c(O)c1
39 | 2.04 | CC(=O)C1C(=O)C=C(C)OC1=O (configuration not stated)
40 | 4.3 | O=C(O)c1ccc2ccccc2c1O
41 | 0.928 | OCC1OC(OCC2OC(OCC3OC(OC4(CO)OC(CO)C(O)C4O)C(O)C(O)C3O)C(O)C(O)C2O)C(O)C(O)C1O (configuration not stated)
42 | 0.946 | NC(CS)C(=O)NCC(=O)O (configuration not stated)
43 | 0.761 | NCCC(=O)O
44 | 0.855 | O=c1[nH]cc(CO)c(=O)[nH]1

Row | LC retention time [min] | SMILES
45 | 1.5 | CSCCC(O)C(=O)O (configuration not stated)
46 | 2.35 | CC(=O)S
47 | 5.12 | O=S(=O)(O)c1cccc2cccc(Nc3ccccc3)c12
48 | 0.835 | CC(=O)NC(CCC(N)=O)C(=O)O (configuration not stated)
49 | 0.764 | NC(=O)CCC(N)C(=O)O (configuration not stated)
50 | 2.93 | Oc1ccccc1O
51 | 0.923 | Cc1cn(C2CC(O)C(COP(=O)(O)OP(=O)(O)OC3OC(CO)C(O)C(O)C3O)O2)c(=O)[nH]c1=O (configuration not stated)
52 | 0.802 | NC1C(O)OC(CO)C(O)C1O (configuration not stated)
53 | 0.857 | CCC(CO)C(=O)O (configuration not stated)
54 | 1.2 | CC(C)(O)CC(=O)O
55 | 0.9 | NCCC(=O)NC(Cc1cnc[nH]1)C(=O)O (configuration not stated)
56 | 4.14 | COC(=O)Cc1ccc(O)cc1
57 | 3.06 | CC(=O)Oc1cccc(O)c1
58 | 1.91 | O=C(O)CNC(=O)c1cccc(O)c1
59 | 0.977 | O=c1[nH]c(=O)c2[nH]cnc2[nH]1
60 | 4.48 | CCCCC(=O)N(Cc1ccc(-c2ccccc2-c2nn[nH]n2)cc1)C(C(=O)O)C(C)C (configuration not stated)
61 | 0.848 | COc1cc(CC(=O)O)ccc1OS(=O)(=O)O
62 | 0.778 | CNCC(=O)O
63 | 0.776 | O=C(O)C1CCC(O)CC1 (configuration not stated)
64 | 2.95 | CC(C)=CC(=O)SCCNC(=O)CCNC(=O)C(O)C(C)(C)COP(=O)(O)OP(=O)(O)OCC1OC(n2cnc3c(N)ncnc32)C(O)C1OP(=O)(O)O (configuration not stated)
65 | 0.761 | NC(CO)C(=O)O (configuration not stated)
66 | 1.81 | OCC1OC(Oc2ccc(O)cc2)C(O)C(O)C1O (configuration not stated)

Row | SMILES | LC retention time [min]
67 | COc1ccc2[nH]cc(CCN)c2c1 | 3.64
68 | N#CCc1c[nH]c2ccccc12 | 4.53
69 | O=C(O)CCCCCCCCCCCO | 4.86
70 | Oc1cccc2cccnc12 | 4.19

assay: RP, Waters ACQUITY UPLC HSS C18, 100 × 2.1 mm, 1.7 µm, 40 °C, 0.35 mL/min, estimated dead time 0.63 min; A: water + 0.1% formic acid; B: methanol + 0.1% formic acid; gradient (min/%B) 0/0.5 4/70 4.5/98 5.4/98; details: stereoisomer not certain

Row | LC retention time [min] | SMILES
71 | 3.23 | Cn1c(=O)c2c(ncn2C)n(C)c1=O
72 | 2.69 | Nc1ccc(C(=O)O)c(O)c1
73 | 0.911 | CNCC(O)c1ccc(O)c(O)c1 (configuration not stated)
74 | 3.24 | O=Cc1ccccc1C(=O)O
75 | 1.54 | Nc1ccc(O)c(C(=O)O)c1
76 | 0.817 | CNC(CCC(=O)O)C(=O)O (configuration not stated)
77 | 0.907 | CC(=O)OCC[N+](C)(C)C
78 | 4.46 | C=Cc1ccc(O)cc1
79 | 3.76 | O=C1Cc2ccccc2N1
80 | 1.66 | NC(Cc1ccc(O)cc1)C(=O)O (configuration not stated)
81 | 2.97 | CC(CCC(=O)O)C(=O)O (configuration not stated)
82 | 1.99 | NCc1ccccc1
83 | 1.82 | CCC(=O)OC(CC(=O)[O-])C[N+](C)(C)C (configuration not stated)
84 | 0.862 | Cn1cnc(=N)c2[nH]cnc21
85 | 0.766 | C[N+](C)(C)[O-]
86 | 0.764 | C[N+](C)(C)CCOP(=O)([O-])OCC(O)CO (configuration not stated)
87 | 1.94 | O=c1cccc[nH]1
88 | 2.17 | Cn1c(=O)[nH]c(=O)c2[nH]cnc21
89 | 0.808 | O=C(O)C(O)C(O)C(O)C(=O)CO (configuration not stated)

Row | LC retention time [min] | SMILES
90 | 3.36 | CCN(Cc1ccncc1)C(=O)C(CO)c1ccccc1 (configuration not stated)
91 | 4.66 | CCCC(NC(C)C(=O)N1C(C(=O)O)CC2CCCCC21)C(=O)OCC (configuration not stated)
92 | 0.772 | CNC(CC(=O)O)C(=O)O (configuration not stated)
93 | 1.41 | O=c1[nH]c(=O)c2ncn(C3OC(COP(=O)(O)O)C(O)C3O)c2[nH]1 (configuration not stated)
94 | 1.7 | CCC(=O)NCC(=O)O
95 | 2.28 | Cn1c(=O)[nH]c2nc[nH]c2c1=O
96 | 2.77 | Cc1occc(=O)c1O
97 | 4.61 | CC12CCC3c4ccc(O)cc4CCC3C1CC(O)C2O (configuration not stated)
98 | 1.63 | CC(=O)NC(CCC(=O)O)C(=O)O (configuration not stated)
99 | 4.77 | CN(C)CCCN1c2ccccc2CCc2ccccc21
100 | 3.76 | O=C(O)C=Cc1ccc(O)cc1
101 | 0.873 | NC(CSCC(=O)O)C(=O)O (configuration not stated)
102 | 1.43 | O=C(O)CC(O)(CC(=O)O)C(=O)O
103 | 5.35 | CC(=O)Oc1cc(C)c(OC(C)=O)c2ccccc12
104 | 1.72 | CN1C(=O)CCC1c1cccnc1 (configuration not stated)
105 | 1.42 | Nc1ccccc1O
106 | 3.84 | CC(C(=O)O)c1ccc(O)cc1 (configuration not stated)
107 | 4.3 | CCCOC(=O)c1cc(O)c(O)c(O)c1
108 | 4.47 | CCCc1nc(C)c2c(=O)[nH]c(-c3cc(S(=O)(=O)N4CCN(CC)CC4)ccc3OCC)nn12

Row | LC retention time [min] | SMILES
109 | 4.19 | O=c1ccc2ccccc2o1
110 | 1.38 | O=c1[nH]cnc2nc[nH]c12
111 | 0.907 | NC(=O)c1ccc[n+](C2OC(COP(=O)([O-])O)C(O)C2O)c1 (configuration not stated)
112 | 4.33 | CC(C)NCC(O)COc1cccc2ccccc12 (configuration not stated)
113 | 5.32 | CC(=O)OCC(=O)C1(O)CCC2C3CCC4=CC(=O)CCC4(C)C3C(O)CC21C (configuration not stated)
114 | 2.98 | O=C(O)C1OC(Oc2c[nH]c3ccccc23)C(O)C(O)C1O (configuration not stated)
115 | 0.847 | NC(N)=S
116 | 2.38 | Cn1ccc(=O)n(C)c1=O
117 | 3.62 | COc1ccc(-c2oc3cc(O)ccc3c(=O)c2O)cc1O
118 | 5.33 | CC12CCC(=O)C=C1CCC1C2CCC2(C)C1CCC2(O)C(=O)CO (configuration not stated)
119 | 1.35 | O=C(O)c1cccnc1C(=O)O
120 | 3.94 | CC(C)CC(O)C(=O)O (configuration not stated)
121 | 3.32 | O=C(O)c1ccccc1C(=O)O
122 | 4.42 | COc1ccc2nc(S(=O)Cc3ncc(C)c(OC)c3C)[nH]c2c1 (configuration not stated)
123 | 0.777 | NC(=O)NC(NC(N)=O)C(=O)O
124 | 0.764 | NC(CCC(=O)O)C(=O)O (configuration not stated)
125 | 4.39 | O=C(O)C#Cc1ccccc1
126 | 5.25 | CCCCCCCCCC(=O)OC(CC(=O)[O-])C[N+](C)(C)C (configuration not stated)

Row | SMILES | LC retention time [min]
127 | CCC1CCC(=O)O1 (configuration not stated) | 3.33
128 | NCC(O)c1ccc(O)cc1 (configuration not stated) | 0.904
129 | CN1C2CCC1CC(OC(=O)C(CO)c1ccccc1)C2 (configuration not stated) | 3.22
130 | NC(=O)Cc1ccccc1 | 3.38
131 | NC1CCSC1=O (configuration not stated) | 0.873
132 | CN=C(N)N | 0.776
